Data as given in patent US12195432B2, “2-arylbenzimidazoles as Ppargc1a activators for treating neurodegenerative diseases” (THE BOARD OF TRUSTEES OF THE LELAND STANFORD JUNIOR …, priority 2018, dated 2025).

Legend:
[1] = test system: TNF-α production by BV2 cells or PBMC; experiment: Cellular assay to measure TNF-α inhibition (LPS stimulation, ELISA); format: cell-based, murine or human; settings: 100 ng/ml LPS over 24 hours, relative to DMSO vehicle, compound concentration and cell type not given
Source text: Oxidative metabolism exerts an anti-inflammatory effect on myeloid cell phenotype (O'Neill L A, Front Immunol. 2014) and Ppargc1a can promote this energy metabolic pathway (Spiegelman B M, Novartis Found Symp. 2007). Thus, pharmacological activation of Ppargc1a would be expected to inhibit the inflammatory response of myeloid cells. This phenomenon can be measured in cultures by a TNF-α inhibition assay.
Cellular Assay Protocol to Measure TNF-α Inhibition
The murine myeloid cell line BV2 or human peripheral blood mononuclear cells (PBMC) are cultured in RPMI 1640 media (Cat #11875119, Gibco) supplemented with 10% fetal bovine serum and 1% L-glutamine 1% penicillin. These cells are then stimulated with 100 ng/ml of lipopolysaccharide (LPS, O111:B4, Cat #L2630, Sigma) over 24 hours. LPS stimulation results in the secretion of the inflammatory cytokine TNF-α by BV2 cells or PBMC, which can be quantified by ELISA in culture supernatant samples per manufacturer's protocol (Cat #558273 for BV2 and Cat #558299 for PBMC, BD Biosciences). To determine whether example compounds 1-78 inhibit TNF-α production by BV2 cells or PBMC, the cells were cultured in the presence of the compounds at different concentrations, and fold reduction in TNF-α production relative to TNF-α production by the same cells cultured in the presence of dimethylsulfoxide (as vehicle control) was determined.

[2] = Pharmacokinetic study (mouse): API levels in plasma, brain and liver; format: in vivo; settings: mice, prodrug 10 mg/kg p.o., 0.5 h-4 h, API = example 1 compound; for plasma levels of API: FIG. 1; for brain levels of API: FIG. 2; for liver levels of API: FIG. 3
Protocol: Pharmacokinetic studies (mouse) were performed on the example 1, 6-P, 8-P, and 11-P compounds of the present invention. The example 1, 6-P, 8-P, and 11-P compounds were dosed in mice at 10 mg/kg p.o. (n=2). Plasma, brain, and liver were harvested at 0.5 h, 1 h, 2 h, and 4 h. The samples were analyzed by LCMS to determine levels of the example 1 compound, i.e., the active pharmaceutical ingredient (API) for prodrug examples 6-P, 8-P, and 11-P.

Caco-2 cells = experiment: Caco-2 permeability assay; format: in vitro ADME; settings: 10 μM, pH 7.4, 2 h; for Caco2 A → B: apparent permeability A→B, without elacridar
Protocol: Caco-2 Permeability Assay Protocol
The mixture was analyzed by LC-MS/MS.

plasma levels of API [2]	brain levels of API [2]	liver levels of API [2]	Structure (SMILES)	TNFα Inhibition [1]	also measured
measurable amounts	measurable amounts	measurable amounts	CC(C)(C)c1ccc(-c2nc3ccccc3n2COC(=O)c2ccc(CN)cc2)cc1.Cl [Example 8-P, (4-(((2-(4-(tert-butyl)phenyl)-1H-benzo[d]imidazol-1-yl)methoxy)carbonyl)-phenyl)methylammonium hydrochloride]	–	–
measurable amounts	measurable amounts	measurable amounts	CC(C)(C)c1ccc(-c2nc3ccccc3n2COP(=O)([O-])[O-])cc1.[Na+].[Na+] [Example 11-P, Disodium ((2-(4-(tert-butyl)phenyl)-1H-benzo[d]imidazol-1-yl)methyl) phosphate]	–	–

Further lines, the compound ahead of its results:

Structure (SMILES)	plasma levels of API [2]	brain levels of API [2]	liver levels of API [2]	TNFα Inhibition [1]	also measured
CC(C)(C)c1ccc(-c2nc3ccccc3[nH]2)cc1 [Example 1, 2-(4-(tert-Butyl)phenyl)-1H-benzo[d]imidazole]	–	–	–	A (A = >80% inh.)	–
CC(C)(C)c1ccc(-c2nc3ccccc3n2COC(=O)CCC(=O)O)cc1 [Example 6-P, 4-((2-(4-(tert-Butyl)phenyl)-1H-benzo[d]imidazol-1-yl)methoxy)-4-oxobutanoic acid]	measurable amounts	measurable amounts	measurable amounts	–	–
Clc1ccc(-c2nc3ccccc3[nH]2)cc1 [Example 8, 2-(4-Chlorophenyl)-1H-benzo[d]imidazole]	–	–	–	C (C = <50% inh.)	–
c1ccc(-c2nc3ccccc3[nH]2)cc1 [Example 14, 2-(Phenyl)-1H-benzo[d]imidazole]	–	–	–	C (C = <50% inh.)	–
CC(C)(C)c1ccc(-c2nc3cc(C(F)(F)F)ccc3[nH]2)cc1 [Example 42, (4-tert-Butylphenyl)-5-(trifluoromethyl)-1H-benzo[d]imidazole]	–	–	–	–	Caco2 B → A (Caco-2 cells; apparent permeability B→A): 1.2 nm/s
CC(C)(C)c1cccc(-c2nc3ccccc3[nH]2)c1 [Example 58, 2-(3-tert-Butylphenyl)-1H-benzo[d]imidazole]	–	–	–	–	Caco2 A → B (Caco-2 cells): 21 nm/s
CC(C)(C)c1ccc(-c2nc3cc(C(N)=O)ccc3[nH]2)cc1 [Example 75, 2-(4-tert-Butylphenyl)-1H-benzo[d]imidazol-5-carboxamide]	–	–	–	–	Caco2 A → B (Caco-2 cells): 16 nm/s
